Experimental data from patent US20030212104A1, “Treatment of diabetes and diabetic complications with NHE-1 inhibitors” (Pfizer Inc., priority 2002, published 2003).

Test system: diabetic ob/ob mice
Assay: Antidiabetic effect in diabetic ob/ob mice (plasma glucose, insulin, triglyceride)
Format: in vivo
Source text: Five to eight week old male C57BLU6J-ob/ob mice (obtained from Jackson Laboratory, Bar Harbor, Me.) are housed five per cage under standard animal care practices. After a one week acclimation period, the animals are weighed and 25 microliters of blood are collected from the retro-orbital sinus prior to any treatment. The blood sample is immediately diluted 1:5 with saline containing 0.025% sodium heparin, and held on ice for metabolite analysis. Animals are assigned to treatment groups so that each group has a similar mean for plasma glucose concentration. After group assignment, animals are dosed orally each day for four days with the vehicle consisting of either: (1) 0.25% w/v methyl cellulose in water without pH adjustment; or (2) 0.1% Pluronic® P105 Block Copolymer Surfactant (BASF Corporation, Parsippany, N.J.) in 0.1% saline without pH adjustment. On day 5, the animals are weighed again and then dosed orally with a test compound or the vehicle alone. All compounds are administered in vehicle consisting of either: (1) 0.25% w/v methyl cellulose in water; or 3) neat PEG 400 without pH adjustment; (2) 10% DMSO/O.1% Pluronic® in 0.1% saline without pH adjustment; or 3) neat PEG 400 without pH adjustment. The animals are then bled from the retro-orbital sinus three hours later for determination of blood metabolite levels. The freshly collected samples are centrifuged for two minutes at 10,000×g at room temperature. The supernatant is analyzed for glucose, for example, by the Abbott VP™ (Abbott Laboratories, Diagnostics Division, Irving, Tex.) and VP Super System® Autoanalyzer (Abbott Laboratories, Irving, Tex.), or by the Abbott Spectrum CCX™ (Abbott Laboratories, Irving, Tex.) using the A-Gent™ Glucose-UV Test reagent system (Abbott Laboratories, Irving, Tex.) (a modification of the method of Richterich and Dauwalder, Schweizerische Medizinische Wochenschrift, 101: 860 (1971)) (hexokinase method) using a 100 mg/dl standard. Plasma glucose is then calculated by the equation: Plasma glucose (mg/dl)=Sample value×8.14
where 8.14 is the dilution factor, adjusted for plasma hematocrit (assuming the hematocrit is 44%).
Hypoglycemic activity of the test compounds is determined by statistical analysis (unpaired t-test) of the mean plasma glucose concentration between the test compound group and vehicle-treated group on day 5. The above assay carried out with a range of doses of a test compound allows the determination of an approximate minimal effective dose (MED) value for the in vivo reduction of plasma glucose concentration.
Five to eight week old male C57BL/6J-ob/ob mice (obtained from Jackson Laboratory, Bar Harbor, Me.) are housed five per cage under standard animal care practices and fed standard rodent diet ad libitum. After a one week acclimation period, the animals are weighed and 25 microliters of blood are collected from the retro-orbital sinus prior to any treatment. The blood sample is immediately diluted 1:5 with saline containing 0.025% sodium heparin, and held on ice for plasma glucose analysis. Animals are assigned to treatment groups so that each group has a similar mean for plasma glucose concentration. The compound to be tested is administered by oral gavage as an about 0.02% to 2.0% solution (weight/volume (w/v)) in either (1) 10% DMSO/0.1% Pluronic® P105 Block Copolymer Surfactant (BASF Corporation, Parsippany, N.J.) in 0.1% saline without pH adjustment or (2) 0.25% w/v methylcellulose in water without pH adjustment. Alternatively, the compound to be tested can be administered by oral gavage dissolved in or in suspension in neat PEG 400. Single daily dosing (s.i.d.), twice daily dosing (b.i.d.) or other dosing regimen is maintained for 1 to, for example, 15 days. Control mice receive the 10% DMSO/0.1% Pluronic® P105 in 0.1 % saline without pH adjustment or the 0.25% w/v methylcellulose in water without pH adjustment, or the neat PEG 400 without pH adjustment. […]

[1] = Study 1 conclusion: diabetic ob/ob mice, 20 mg/kg qd for five days
[2] = Study 3 conclusion: diabetic ob/ob mice, 20 mg/kg bid for seven days

Compound	Day 5, 3h post-dose plasma insulin concentration (Study 1: ob/ob mice n=10, 20 mg/kg qd for five days, mean ± SD, vehicle control 57.7 ± 24.5, p = 0.000331)	Day 5, 3h post-dose plasma glucose concentration (Study 1: ob/ob mice n=10, 20 mg/kg qd for five days, mean ± SD, vehicle control 482 ± 139, p = 0.0498)	Plasma glucose concentration compared to the vehicle control group [1]	Plasma insulin concentration compared to the vehicle control group [1]	Day 5, 3h post-dose plasma insulin concentration (Study 2: ob/ob mice n=10, 20 mg/kg bid for four days plus AM dose on fifth day, mean ± SD, vehicle control 10.0 ± 6.8)	Day 5, 3h post-dose plasma glucose concentration (Study 2: ob/ob mice n=10, 20 mg/kg bid for four days plus AM dose on fifth day, mean ± SD, vehicle control 322 ± 72, p = 0.0003)	Plasma glucose concentration compared to the vehicle control group (Study 2 conclusion: diabetic ob/ob mice, 20 mg/kg bid for four days)	Day 8, 3h post-dose plasma triglyceride concentration (Study 3: ob/ob mice n=15, 20 mg/kg bid for seven days plus AM dose on eighth day, mean ± SD, vehicle control 167 ± 44, p = 0.0002)	Day 8, 3h post-dose plasma glucose concentration (Study 3: ob/ob mice n=15, 20 mg/kg bid for seven days plus AM dose on eighth day, mean ± SD, vehicle control 397 ± 134, p = 0.0001)	Plasma glucose concentration compared to the vehicle control group [2]	Plasma insulin concentration compared to the vehicle control group [2]	Plasma triglyceride concentration compared to the vehicle control group [2]
N=C(N)NC(=O)c1cnn(-c2cccc3ncccc23)c1C1CC1 [[5-cyclopropyl-1-(quinolin-5-yl)-1H-pyrazole-4-carbonyl]guanidine]	20.5 ± 10.3 µg/L	371 ± 90 mg/dL	significantly reduced	significantly reduced	–	–	–	–	–	–	–	–
[1-(2-trifluoromethyl-4-chlorophenyl)-5-cyclopropyl-1H-pyrazole-4-carbonyl]-guanidine	–	–	–	–	11.1 ± 9.0 µg/L	195 ± 50 mg/dL	significantly reduced	107 ± 24 mg/dL	204 ± 69 mg/dL	significantly reduced	significantly reduced	significantly reduced
